# Results as given in US20230087342A1, “AZEPANE DERIVATIVE” (Nippon Chemiphar Co., Ltd., priority 2019, published 2023).
# Target: T1, human κ opioid receptors (Homo sapiens, UniProt P41145)
# T1 construct: host or cells: CHO cells
# Experiment: Opioid receptor function test (Lance Ultra cAMP kit, agonist activity)
# Type: cell-based
# Settings: CHO cells expressing human κ opioid receptors, 10 μM forskolin, 30 minutes
# Summary of the method: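 CHO cells expressing human κ opioid receptor incubated 30 min with test compound (10^−14 to 10^−7 M) and 10 μM forskolin in HSS/5 mM HEPES pH 7.4 with 0.5 mM IBMX and 0.1% SA. cAMP measured by TR-FRET (Lance Ultra) 1 h after detection reagent addition.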
# T1 sequence (P41145 whole entry): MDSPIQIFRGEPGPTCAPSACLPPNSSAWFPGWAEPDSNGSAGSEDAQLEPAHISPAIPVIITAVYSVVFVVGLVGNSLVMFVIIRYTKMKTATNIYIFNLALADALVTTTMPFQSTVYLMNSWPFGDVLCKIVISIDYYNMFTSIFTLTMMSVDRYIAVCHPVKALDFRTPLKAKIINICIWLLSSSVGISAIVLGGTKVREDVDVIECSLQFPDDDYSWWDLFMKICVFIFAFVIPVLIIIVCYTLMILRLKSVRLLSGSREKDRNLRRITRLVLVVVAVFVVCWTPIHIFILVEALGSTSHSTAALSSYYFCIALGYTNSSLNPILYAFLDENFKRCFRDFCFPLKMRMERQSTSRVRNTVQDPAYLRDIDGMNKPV
row,Structure (SMILES),EC50
1,"Cc1cnn(CCN2CC[C@]34CCN(CC5CC5)[C@H](Cc5ccc(O[C@@H]6O[C@H](C(=O)O)[C@@H](O)C(O)[C@H]6O)cc53)[C@]4(O)CC2)c1 (stereo partly drawn) [Example 246, (2S,3S,5R,6S)-6-(((5aS,6R,11bS)-14-(cyclopropylmethyl)-5a-hydroxy-3-(2-(4-methyl-1H-pyrazol-1-yl)ethyl)-1,2,3,4,5,5a,6,7-octahydro-6,11b-(epiminoethano)naphtho[1,2-d]azepin-10-yl)oxy)-3,4,5-trihydroxytetrahydro-2H-pyran-2-carboxylic acid]",2.6 nM
2,"CCCN1CC[C@]23CCN(CCc4ccccn4)CC[C@@]2(O)[C@H]1Cc1ccc(O)cc13 [Example 159, (5aS,6R,11bS)-14-propyl-3-(2-(pyridin-2-yl)ethyl)-2,3,4,5,6,7-hexahydro-6,11b-(epiminoethano)naphtho[1,2-d]azepine-5a,10(1H)-diol]",0.77 nM
3,"CC(C)(C)c1cnn(CCN2CC[C@]34CCN(CC5CC5)[C@H](Cc5ccc(O)cc53)[C@]4(O)CC2)c1 [Example 149, (5aS,6R,11bS)-3-(2-(4-(tert-butyl)-1H-pyrazol-1-yl)ethyl)-14-(cyclopropylmethyl)-2,3,4,5,6,7-hexahydro-6,11b-(epiminoethano)naphtho[1,2-d]azepine-5a,10(1H)-diol]",0.023 nM
4,"Cc1ccnn1CCN1CC[C@]23CCN(CC4CC4)[C@H](Cc4ccc(O)cc42)[C@]3(O)CC1 [Example 52, (5aS,6R,11bS)-14-(cyclopropylmethyl)-3-(2-(5-methyl-1H-pyrazol-1-yl)ethyl)-2,3,4,5,6,7-hexahydro-6,11b-(epiminoethano)naphtho[1,2-d]azepine-5a,10(1H)-diol]",0.15 nM
5,"Oc1ccc2c(c1)[C@@]13CCN(CCCn4cc(C(F)(F)F)cn4)CC[C@@]1(O)[C@@H](C2)N(CC1CC1)CC3 [Example 179, (5aS,6R,11bS)-14-(cyclopropylmethyl)-3-(3-(4-(trifluoromethyl)-1H-pyrazol-1-yl)propyl)-2,3,4,5,6,7-hexahydro-6,11b-(epiminoethano)naphtho[1,2-d]azepine-5a,10(1H)-diol]",0.024 nM
6,"O=C(Cc1cc2ccccn2n1)N1CC[C@]23CCN(CC4CC4)[C@H](Cc4ccc(O)cc42)[C@]3(O)CC1 [Example 117, 1-((5aS,6R,11bR)-14-(cyclopropylmethyl)-5a,10-dihydroxy-1,2,5,5a,6,7-hexahydro-6,11b-(epiminoethano)naphtho[1,2-d]azepin-3(4H)-yl)-2-(pyrazolo[1,5-a]pyridin-2-yl)ethan-1-one]",0.4 nM
7,"O=C(CCc1ccccn1)N1CC[C@]23CCN(CC4CC4)[C@H](Cc4ccc(O)cc42)[C@]3(O)CC1 [Example 190, 1-((5aS,6R,11bR)-14-(cyclopropylmethyl)-5a,10-dihydroxy-1,2,5,5a,6,7-hexahydro-6,11b-(epiminoethano)naphtho[1,2-d]azepin-3(4H)-yl)-3-(pyridin-2-yl)propan-1-one]",0.32 nM
8,"Oc1ccc2c(c1)[C@@]13CCN(CCc4ccco4)CC[C@@]1(O)[C@@H](C2)N(CC1CC1)CC3 [Example 32, (5aS,6R,11bS)-14-(cyclopropylmethyl)-3-(2-(furan-2-yl)ethyl)-2,3,4,5,6,7-hexahydro-6,11b-(epiminoethano)naphtho[1,2-d]azepine-5a,10(1H)-diol]",0.13 nM
9,"O=C(CN1CCC(F)(F)C1)N1CC[C@]23CCN(CC4CC4)[C@H](Cc4ccc(O)cc42)[C@]3(O)CC1 [Example 181, 1-((5aS,6R,11bR)-14-(cyclopropylmethyl)-5a,10-dihydroxy-1,2,5,5a,6,7-hexahydro-6,11b-(epiminoethano)naphtho[1,2-d]azepin-3(4H)-yl)-2-(3,3-difluoropyrrolidin-1-yl)ethan-1-one]",0.32 nM
10,"Cc1cnn(CCN2CC[C@]34CCN(CC5(C)CC5)[C@H](Cc5ccc(O)cc53)[C@]4(O)CC2)c1 [Example 221, (5aS,6R,11bS)-3-(2-(4-methyl-1H-pyrazol-1-yl)ethyl)-14-((1-methylcyclopropyl)methyl)-2,3,4,5,6,7-hexahydro-6,11b-(epiminoethano)naphtho[1,2-d]azepine-5a,10(1H)-diol]",0.034 nM
11,"O=C(Cn1cc(C2CC2)cn1)N1CC[C@]23CCN(CC4CC4)[C@H](Cc4ccc(O)cc42)[C@]3(O)CC1 [Example 160, 2-(4-cyclopropyl-1H-pyrazol-1-yl)-1-((5aS,6R,11bR)-14-(cyclopropylmethyl)-5a,10-dihydroxy-1,2,5,5a,6,7-hexahydro-6,11b-(epiminoethano)naphtho[1,2-d]azepin-3(4H)-yl)ethan-1-one]",0.045 nM
12,"CN(C)CCC(=O)N1CC[C@]23CCN(CC4CC4)[C@H](Cc4ccc(O)cc42)[C@]3(O)CC1 [Example 186, 1-((5aS,6R,11bR)-14-(cyclopropylmethyl)-5a,10-dihydroxy-1,2,5,5a,6,7-hexahydro-6,11b-(epiminoethano)naphtho[1,2-d]azepin-3(4H)-yl)-3-(dimethylamino)propan-1-one]",0.99 nM
13,"Cc1cnn(CCN2CC[C@]34CCN(CC5CC5)[C@H](Cc5ccc(O)cc53)[C@]4(O)CC2(C)C)c1 [Example 270, (5aS,6R,11bR)-14-(cyclopropylmethyl)-4,4-dimethyl-3-(2-(4-methyl-1H-pyrazol-1-yl)ethyl)-2,3,4,5,6,7-hexahydro-6,11b-(epiminoethano)naphtho[1,2-d]azepine-5a,10(1H)-diol]",0.052 nM
14,"O=C(Cn1nccc1O)N1CC[C@]23CCN(CC4CC4)[C@H](Cc4ccc(O)cc42)[C@]3(O)CC1 [Example 214, 1-((5aS,6R,11bR)-14-(cyclopropylmethyl)-5a,10-dihydroxy-1,2,5,5a,6,7-hexahydro-6,11b-(epiminoethano)naphtho[1,2-d]azepin-3(4H)-yl)-2-(5-hydroxy-1H-pyrazol-1-yl)ethan-1-one]",0.13 nM
15,"CN(C)CC(=O)N1CC[C@]23CCN(CC4CC4)[C@H](Cc4ccc(O)cc42)[C@]3(O)CC1 [Example 198, 1-((5aS,6R,11bR)-14-(cyclopropylmethyl)-5a,10-dihydroxy-1,2,5,5a,6,7-hexahydro-6,11b-(epiminoethano)naphtho[1,2-d]azepin-3(4H)-yl)-2-(dimethylamino)ethan-1-one]",0.59 nM
16,"O=C(Cc1n[nH]c2ccccc12)N1CC[C@]23CCN(CC4CC4)[C@H](Cc4ccc(O)cc42)[C@]3(O)CC1 [Example 114, 1-((5aS,6R,11bR)-14-(cyclopropylmethyl)-5a,10-dihydroxy-1,2,5,5a,6,7-hexahydro-6,11b-(epiminoethano)naphtho[1,2-d]azepin-3(4H)-yl)-2-(1H-indazol-3-yl)ethan-1-one]",0.043 nM
17,"Oc1ccc2c(c1)[C@@]13CCN(CCn4cc5ccccc5n4)CC[C@@]1(O)[C@@H](C2)N(CC1CC1)CC3 [Example 120, (5aS,6R,11bS)-3-(2-(2H-indazol-2-yl)ethyl)-14-(cyclopropylmethyl)-2,3,4,5,6,7-hexahydro-6,11b-(epiminoethano)naphtho[1,2-d]azepine-5a,10(1H)-diol]",0.053 nM
18,"CCC1C[C@@]2(O)[C@H]3Cc4ccc(O)cc4[C@]2(CCN1C(=O)Cc1ccccn1)CCN3CC1CC1 (stereo partly drawn) [Example 347, 1-((5aS,6R,11bR)-14-(cyclopropylmethyl)-4-ethyl-5a,10-dihydroxy-1,2,5,5a,6,7-hexahydro-6,11b-(epiminoethano)naphtho[1,2-d]azepin-3(4H)-yl)-2-(pyridin-2-yl)ethan-1-one]",0.12 nM
19,"Cn1nc(CCN2CC[C@]34CCN(CC5CC5)[C@H](Cc5ccc(O)cc53)[C@]4(O)CC2)cc1C(F)(F)F [Example 37, (5aS,6R,11bS)-14-(cyclopropylmethyl)-3-(2-(1-methyl-5-(trifluoromethyl)-1H-pyrazol-3-yl)ethyl)-2,3,4,5,6,7-hexahydro-6,11b-(epiminoethano)naphtho[1,2-d]azepine-5a,10(1H)-diol]",0.051 nM
20,"CC1(C)C[C@@]2(O)[C@H]3Cc4ccc(O)cc4[C@@]2(CCN3CC2CC2)CCN1C(=O)Cc1ccccn1 [Example 343, 1-((5aS,6R,11bR)-14-(cyclopropylmethyl)-5a,10-dihydroxy-4,4-dimethyl-1,2,5,5a,6,7-hexahydro-6,11b-(epiminoethano)naphtho[1,2-d]azepin-3(4H)-yl)-2-(pyridin-2-yl)ethan-1-one]",0.56 nM
21,"Cc1cnn([C@H]2CC[C@@H](N3CC[C@]45CCN(CC6CC6)[C@H](Cc6ccc(O)cc64)[C@]5(O)CC3)C2)c1 [Example 236, (5aS,6R,11bS)-14-(cyclopropylmethyl)-3-((1R,3S)-3-(4-methyl-1H-pyrazol-1-yl)cyclopentyl)-2,3,4,5,6,7-hexahydro-6,11b-(epiminoethano)naphtho[1,2-d]azepine-5a,10(1H)-diol]",0.012 nM
22,"Cc1cc(CC(=O)N2CC[C@]34CCN(CC5CC5)[C@H](Cc5ccc(O)cc53)[C@]4(O)CC2)no1 [Example 185, 1-((5aS,6R,11bR)-14-(cyclopropylmethyl)-5a,10-dihydroxy-1,2,5,5a,6,7-hexahydro-6,11b-(epiminoethano)naphtho[1,2-d]azepin-3(4H)-yl)-2-(5-methylisoxazol-3-yl)ethan-1-one]",0.39 nM
23,"Cc1cc(CC(=O)N2CC[C@]34CCN(CC5CC5)[C@H](Cc5ccc(O)cc53)[C@]4(O)CC2)ns1 [Example 168, 1-((5aS,6R,11bR)-14-(cyclopropylmethyl)-5a,10-dihydroxy-1,2,5,5a,6,7-hexahydro-6,11b-(epiminoethano)naphtho[1,2-d]azepin-3(4H)-yl)-2-(5-methylisothiazol-3-yl)ethan-1-one]",0.047 nM
24,"Cn1nc(CCN2CC[C@]34CCN(CC5CC5)[C@H](Cc5ccc(O)cc53)[C@]4(O)CC2)c2ccccc21 [Example 113, (5aS,6R,11bS)-14-(cyclopropylmethyl)-3-(2-(1-methyl-1H-indazol-3-yl)ethyl)-2,3,4,5,6,7-hexahydro-6,11b-(epiminoethano)naphtho[1,2-d]azepine-5a,10(1H)-diol]",0.56 nM
